Here are results for one compound from ChEMBL document CHEMBL4422653, “Discovery of a potent tyrosine kinase AXL inhibitor bearing the 3-((2,3,4,5-tetrahydro-1H-benzo[d]azepin-7-yl)amino)pyrazine core” (Bioorg Med Chem Lett, 2019).

As a reminder, the half-life is how long it takes for the measured level to halve. A lower half-life goes with rapid decline. Usually AUC(0-inf) stands for total exposure, with the tail of the curve extrapolated. In general, clearance refers to the volume of plasma or blood freed of the substance per unit of time. The low end stands for inefficient removal, the high end for efficient removal. As a reminder, the Cmax is the maximum level reached in the sampled fluid or tissue. One may read the Tmax as the time from dosing to the highest level. The bioavailability is dose-corrected exposure relative to a reference, in per cent. Lower therefore signals little systemic uptake.

What all share (assay type): ADME, organism-based
Conditions in all cases: in vivo

Series [1] is described as follows: Half life in Sprague-Dawley rat at 1 mg/kg, iv.
Series [2] can be described thus: AUC (0 to infinity) in Sprague-Dawley rat at 1 mg/kg, iv. Set-up: dose 1 mg/kg, route intravenous, time infinity.
The nature of series [3]: Clearance in Sprague-Dawley rat at 1 mg/kg, iv.
A short description of series [4]: Cmax in Sprague-Dawley rat at 3 mg/kg, po. The arrangement: dose 3 mg/kg, route oral.
The nature of series [5]: Tmax in Sprague-Dawley rat at 3 mg/kg, po.
A short description of series [6]: AUC (0 to infinity) in Sprague-Dawley rat at 3 mg/kg, po. The arrangement: dose 3 mg/kg, time infinity, route oral.
Series [7] in a line: Oral bioavailability in Sprague-Dawley rat at 3 mg/kg.

Turning to `CCc1nc(C(N)=O)c(Nc2ccc3c(c2)CCN(C2CCCC2)CC3)nc1NC1CCOCC1`, in series [1], the half-life was 2.12 h. Also, the results for the AUC(0-inf) in series [2] and in series [6] were 179 ng·h/mL and 199 ng·h/mL, respectively. Moreover, the clearance in series [3] turned out to be 93.2 mL/min/kg. This compound also had a Cmax in series [4] of 23.8 ng/mL. The Tmax in series [5] came out at 4 h. Besides, the bioavailability in series [7] is 24.8%.
